# Measurements taken from patent US6921770B2 (priority 2000, dated 2005).
# Read-outs that look alike come from different tables or passages of the source.
# Experiments:
# [1] = test system: rice blast fungi; assay type: in vivo, Pyricularia grisea
# [2] = test system: Pyricularia grisea; assay type: in vivo
# [3] = test system: rice blast fungi; assay type: cell-based, Magnaporthe grisea
# [4] = test system: rice blast fungi; assay type: cell-based, Magnaporthe grisea; remark: listed apart in the source
# [5] = test system: Oryzias latipes; conditions: in vivo
# [6] = test system: Sprague-Dawley rats; conditions: rat, in vivo
# [7] = test system: Salmonella typhimurium TA100 and TA98
compound,measurement,setting,value
"2-(3-trifluoromethoxyphenylimino)-3-methyl-4-[N-methoxyphenyl)carbamoylmethyl]-1,3-thiazol-4-ine [Compound 339]",Inhibiting Ratio (%) (at 250 ppm),[1],98%
same,controlling effect on rice blast,[2]; 2 ppm,80%
same,controlling effect on rice blast,[2]; 10 ppm,95%
same,controlling effect on rice blast,[2]; 100 ppm,96%
"Br.Cn1c(CC(=O)Nc2ccccc2)csc1=Nc1cc(Cl)cc(Cl)c1 [Compound 5, 2-(3,5-dichlorophenylimino)-3-methyl-4-(N-phenylcarbamoylmethyl)-1,3-thiazol-4-ine hydrobromide]",concentration at which the accumulation of melanin in the appressorium is inhibited,[3],above 10 μg/ml
same,Inhibiting Ratio (%) (at 250 ppm),[1],100%
same,color of the medium,[4]; 5 μg/ml,white
"Br.Cn1c(CC(=O)Nc2ccccc2)csc1=Nc1ccc(F)cc1F [Compound 27, 2-(2,4-difluorophenylimino)-3-methyl-4-(N-phenylcarbamoylmethyl)-1,3-thiazol-4-ine hydrobromide]",Inhibiting Ratio (%) (at 250 ppm),[1],98%
same,controlling effect on rice blast,[2]; 2 ppm,80%
same,controlling effect on rice blast,[2]; 10 ppm,91%
same,controlling effect on rice blast,[2]; 100 ppm,98%
"Br.Cc1ccc(NC(=O)Cc2csc(=Nc3ccc(F)cc3F)n2C)cc1 [Compound 31, 2-(2,4-difluorophenylimino)-3-methyl-4-[N-(4-methylphenyl)carbamoylmethyl]-1,3-thiazol-4-ine hydrobromide]",Inhibiting Ratio (%) (at 250 ppm),[1],100%
same,controlling effect on rice blast,[2]; 2 ppm,80%
same,controlling effect on rice blast,[2]; 10 ppm,91%
same,controlling effect on rice blast,[2]; 100 ppm,100%
"Cl.Cn1c(CC(=O)Nc2ccc(Cl)cc2)csc1=Nc1ccc(C#N)cc1 [Compound 128, 2-(4-cyanophenylimino)-3-methyl-4-[N-(4-chlorophenyl)carbamoylmethyl]-1,3-thiazol-4-ine hydrochloride]",Inhibiting Ratio (%) (at 250 ppm),[1],98%
same,controlling effect on rice blast,[2]; 2 ppm,85%
same,controlling effect on rice blast,[2]; 10 ppm,100%
same,controlling effect on rice blast,[2]; 100 ppm,100%
"Cl.Cn1c(CC(=O)Nc2ccccc2F)csc1=Nc1ccc(Br)cc1 [Compound 152, 2-(4-bromophenylimino)-3-methyl-4-[N-(2-fluorophenyl)carbamoylmethyl]-1,3-thiazol-4-ine hydrochloride]",Inhibiting Ratio (%) (at 250 ppm),[1],100%
same,controlling effect on rice blast,[2]; 2 ppm,70%
same,controlling effect on rice blast,[2]; 10 ppm,85%
same,controlling effect on rice blast,[2]; 100 ppm,99%
"CCCCc1ccc(N=c2scc(CC(=O)Nc3ccc(OC)cc3)n2C)cc1.Cl [Compound 197, 2-[4-(n-butyl)phenylimino]-3-methyl-4-[N-(4-methoxyphenyl)carbamoylmethyl]-1,3-thiazol-4-ine hydrochloride]",Inhibiting Ratio (%) (at 250 ppm),[1],95%
same,controlling effect on rice blast,[2]; 2 ppm,83%
same,controlling effect on rice blast,[2]; 10 ppm,98%
same,controlling effect on rice blast,[2]; 100 ppm,95%
"COc1ccc(NC(=O)Cc2csc(=Nc3cccc(Br)c3)n2C)cc1.Cl [Compound 201, 2-(3-bromophenylimino)-3-methyl-4-[N-(4-methoxyphenyl)carbamoylmethyl]-1,3-thiazol-4-ine hydrochloride]",Inhibiting Ratio (%) (at 250 ppm),[1],97%
same,controlling effect on rice blast,[2]; 2 ppm,87%
same,controlling effect on rice blast,[2]; 10 ppm,99%
same,controlling effect on rice blast,[2]; 100 ppm,97%
"COc1ccc(NC(=O)Cc2csc(=Nc3ccc(F)c(Cl)c3)n2C)cc1.Cl [Compound 202, 2-(3-chloro-4-fluorophenylimino)-3-methyl-4-[N-(4-methoxyphenyl)carbamoylmethyl]-1,3-thiazol-4-ine hydrochloride]",Inhibiting Ratio (%) (at 250 ppm),[1],95%
same,controlling effect on rice blast,[2]; 2 ppm,93%
same,controlling effect on rice blast,[2]; 10 ppm,98%
same,controlling effect on rice blast,[2]; 100 ppm,95%
"COc1ccc(NC(=O)Cc2csc(=Nc3cccc(F)c3)n2C)cc1.Cl [Compound 203, 2-(3-fluorophenylimino)-3-methyl-4-[N-(4-methoxyphenyl)carbamoylmethyl]-1,3-thiazol-4-ine hydrochloride]",Inhibiting Ratio (%) (at 250 ppm),[1],93%
same,controlling effect on rice blast,[2]; 2 ppm,93%
same,controlling effect on rice blast,[2]; 10 ppm,99%
same,controlling effect on rice blast,[2]; 100 ppm,93%
"COc1ccc(NC(=O)Cc2csc(=Nc3ccccc3F)n2C)cc1.Cl [Compound 204, 2-(2-fluorophenylimino)-3-methyl-4-[N-(4-methoxyphenyl)carbamoylmethyl]-1,3-thiazol-4-ine hydrochloride]",Accumulated number of dead animals,[5],0
same,acute toxicity value,[5],> 100 mg/L
same,body weight,[6],Normal weight gain
same,dead animals,[6],not observed
same,general symptoms,[6],Any abnormal observations were made
same,postmortem examination,[6],does not show any abnormal conservation
same,minimal lethal dose,[6]; po,higher than 2500 mg/kg
same,Inhibiting Ratio (%) (at 250 ppm),[1],97%
same,bacterial reverse mutation,[7],does not cause bacterial reverse mutation
same,colony number in the group treated with the test material,[7],less than twice of that in the negative control group
same,controlling effect on rice blast,[2]; 2 ppm,83%
same,controlling effect on rice blast,[2]; 10 ppm,95%
same,controlling effect on rice blast,[2]; 100 ppm,97%
"COc1ccc(NC(=O)Cc2csc(=Nc3ccc(C(F)(F)F)cc3)n2C)cc1.Cl [Compound 205, 2-(4-trifluoromethylphenylimino)-3-methyl-4-[N-(4-methoxyphenyl)carbamoylmethyl]-1,3-thiazol-4-ine hydrochloride]",Inhibiting Ratio (%) (at 250 ppm),[1],97%
same,controlling effect on rice blast,[2]; 2 ppm,93%
same,controlling effect on rice blast,[2]; 10 ppm,98%
same,controlling effect on rice blast,[2]; 100 ppm,97%
"COc1ccc(NC(=O)Cc2csc(=Nc3ccc(F)cc3F)n2C)cc1.Cl [Compound 206, 2-(2,4-difluorophenylimino)-3-methyl-4-[N-(4-methoxyphenyl)carbamoylmethyl]-1,3-thiazol-4-ine hydrochloride]",Inhibiting Ratio (%) (at 250 ppm),[1],93%
same,controlling effect on rice blast,[2]; 2 ppm,93%
same,controlling effect on rice blast,[2]; 10 ppm,97%
same,controlling effect on rice blast,[2]; 100 ppm,93%
"CCCCc1ccc(N=c2scc(CC(=O)Nc3ccc(C)c(Cl)c3)n2C)cc1.Cl [Compound 234, 2-[4-(n-butyl)phenylimino]-3-methyl-4-(N-[3-chloro-4-methylphenyl)carbamoylmethyl]-4-thiazoline hydrochloride]",Inhibiting Ratio (%) (at 250 ppm),[1],97%
same,controlling effect on rice blast,[2]; 2 ppm,75%
same,controlling effect on rice blast,[2]; 10 ppm,92%
same,controlling effect on rice blast,[2]; 100 ppm,97%
"Br.COc1ccc(NC(=O)Cc2csc(=Nc3ccc(C#N)cc3)n2C)cc1 [Compound 323, 2-(4-cyanophenylimino)-3-methyl-4-[N-(4-methoxyphenyl)carbamoylmethyl]-1,3-thiazol-4-ine hydrobromide]",Inhibiting Ratio (%) (at 250 ppm),[1],97%
same,controlling effect on rice blast,[2]; 2 ppm,75%
same,controlling effect on rice blast,[2]; 10 ppm,100%
same,controlling effect on rice blast,[2]; 100 ppm,100%
"COc1ccc(NC(=O)Cc2csc(=Nc3cccc(Br)c3)n2C)cc1 [Compound 335, 2-(3-bromophenylimino)-3-methyl-4-[N-(methoxyphenyl)carbamoylmethyl]-1,3-thiazol-4-ine]",Inhibiting Ratio (%) (at 250 ppm),[1],99%
same,controlling effect on rice blast,[2]; 2 ppm,72%
same,controlling effect on rice blast,[2]; 10 ppm,95%
same,controlling effect on rice blast,[2]; 100 ppm,94%
"CCc1ccc(NC(=O)Cc2csc(=Nc3ccc(C#N)cc3)n2C)cc1.Cl [Compound 345, 2-(4-cyanophenylimino)-3-methyl-4-[N-(4-ethylphenyl)carbamoylmethyl]-1,3-thiazol-4-ine hydrochloride]",controlling effect on rice blast,"[2]; 2 ppm, hydrochloride",70%
same,controlling effect on rice blast,"[2]; 10 ppm, hydrochloride",94%
same,controlling effect on rice blast,"[2]; 100 ppm, hydrochloride",97%
"CCc1ccc(NC(=O)Cc2csc(=Nc3ccc(C(F)(F)F)cc3)n2C)cc1.Cl [Compound 346, 2-(4-trifluoromethylphenylimino)-3-methyl-4-[N-(4-ethylphenyl)carbamoylmethyl]-1,3-thiazol-4-ine hydrochloride]",controlling effect on rice blast,[2]; 2 ppm,79%
same,controlling effect on rice blast,[2]; 10 ppm,96%
same,controlling effect on rice blast,[2]; 100 ppm,99%
"Cc1cccc2sc3nncn3c12 [tricyclazole, reference compound]",color of the medium,[4],red
